In PubChem BioAssay AID256 (DTP/NCI, 2004):
Several values for one entry are separate records, joined by “and”; a condition that tells them apart may be missing. Identical values can stand only once. Inconclusive results and toxic doses are left out. How the source made its calls: active means survival T/C of 150% or more; inactive means T/C below 125% in these data.

Test system: CD2F1 mice, L1210 leukemia ip, survival T/C
Assay: NCI In Vivo Anticancer Drug Screen. Data for tumor model L1210 Leukemia (intraperitoneal) in CD2F1 (CDF1) mice
Settings: higher = longer survival
Outline: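 Activity against a transplanted murine tumor was judged by comparing the compound group with a vehicle group. The outcome in the treated animals was divided by that in the controls.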

[1] = endpoint: mean survival time, dose: 50.0 mg/kg/injection, schedule: Q01DX009 (ip), vehicle: saline
[2] = endpoint: mean survival time, dose: 25.0 mg/kg/injection, schedule: Q01DX005 (ip), vehicle: other
[3] = endpoint: mean survival time, dose: 50.0 mg/kg/injection, schedule: Q01DX005 (ip), vehicle: other
[4] = endpoint: mean survival time, dose: 12.5 mg/kg/injection, schedule: Q01DX009 (ip), vehicle: saline with Tween-80
[5] = endpoint: mean survival time, dose: 25.0 mg/kg/injection, schedule: Q01DX009 (ip), vehicle: saline with Tween-80
[6] = endpoint: mean survival time, dose: 50.0 mg/kg/injection, schedule: Q01DX009 (ip), vehicle: saline with Tween-80
[7] = endpoint: mean survival time, dose: 100.0 mg/kg/injection, schedule: Q01DX009 (ip), vehicle: saline with Tween-80
[8] = endpoint: mean survival time, dose: 200.0 mg/kg/injection, schedule: Q01DX009 (ip), vehicle: saline with Tween-80
[9] = endpoint: mean survival time, dose: 400.0 mg/kg/injection, schedule: Q01DX009 (ip), vehicle: saline with Tween-80
[10] = endpoint: mean survival time, dose: 100.0 mg/kg/injection, schedule: Q01DX001 (ip), vehicle: saline with Tween-80
[11] = endpoint: mean survival time, dose: 200.0 mg/kg/injection, schedule: Q01DX001 (ip), vehicle: saline with Tween-80
[12] = endpoint: mean survival time, dose: 400.0 mg/kg/injection, schedule: Q01DX001 (ip), vehicle: saline with Tween-80
[13] = endpoint: mean survival time, dose: 100.0 mg/kg/injection, schedule: Q04DX003 (ip), vehicle: other
[14] = endpoint: mean survival time, dose: 200.0 mg/kg/injection, schedule: Q04DX003 (ip), vehicle: other
[15] = endpoint: mean survival time, dose: 100.0 mg/kg/injection, schedule: Q04DX003 (ip), vehicle: saline with Tween-80
[16] = endpoint: mean survival time, dose: 200.0 mg/kg/injection, schedule: Q04DX003 (ip), vehicle: saline with Tween-80
[17] = endpoint: mean survival time, dose: 400.0 mg/kg/injection, schedule: Q04DX003 (ip), vehicle: saline with Tween-80

Measured: T/C

[CH3][Sn]([CH3])([CH3])[CH2]CCBr
inactive: endpoint: mean survival time, dose: 0.39 mg/kg/injection, schedule: Q01DX009 (ip), vehicle: saline 107 % of control | endpoint: mean survival time, dose: 0.78 mg/kg/injection, schedule: Q01DX009 (ip), vehicle: saline 107 % of control | [1] 89 % of control

COC[C@H]1OC(=O)c2coc3c2[C@@]1(C)C1=C(C3=O)[C@@H]2CCC(=O)[C@@]2(C)C[C@H]1OC(C)=O
inactive: endpoint: mean survival time, dose: 0.16 mg/kg/injection, schedule: Q01DX009 (ip), vehicle: saline 102 % of control | endpoint: mean survival time, dose: 0.31 mg/kg/injection, schedule: Q01DX009 (ip), vehicle: saline 98 % of control | endpoint: mean survival time, dose: 0.63 mg/kg/injection, schedule: Q01DX009 (ip), vehicle: saline 102 % of control | endpoint: mean survival time, dose: 1.25 mg/kg/injection, schedule: Q01DX009 (ip), vehicle: saline with Tween-80 86 % of control | endpoint: mean survival time, dose: 1.25 mg/kg/injection, schedule: Q01DX009 (ip), vehicle: saline 110 % of control

CCN(CC)c1nc(CCc2ccc(N(C)C)cc2)c2[nH]cnc2n1
inactive: endpoint: mean survival time, dose: 3.13 mg/kg/injection, schedule: Q01DX005 (ip), vehicle: other 94 % of control | endpoint: mean survival time, dose: 6.25 mg/kg/injection, schedule: Q01DX005 (ip), vehicle: other 93 % of control | endpoint: mean survival time, dose: 12.5 mg/kg/injection, schedule: Q01DX005 (ip), vehicle: other 93 % of control | [2] 89 % of control | [3] 89 % of control

COc1ccc(C(=O)CCN2CCC(O)(c3ccccc3)CC2)cc1
inactive: [4] 93 % of control | [5] 97 % of control | [6] 89 % of control

C=CCNc1nc2c(s1)CCc1cc(OC)c(OC)cc1-2
inactive: [4] 92 % of control and 97 % of control | [5] 95 % of control and 101 % of control | [6] 97 % of control and 98 % of control | [7] 97 % of control and 101 % of control | [8] 97 % of control and 101 % of control | [9] 106 % of control

O=C(NCCNC(c1ccccc1)C(NCCNC(=O)c1ccccc1)c1ccccc1)c1ccccc1 (configuration not stated)
inactive: [10] 92 % of control | [11] 96 % of control | [12] 92 % of control

Cc1cc2[nH]cnc2cc1Cl
inactive: [1] 98 % of control | endpoint: mean survival time, dose: 100.0 mg/kg/injection, schedule: Q01DX009 (ip), vehicle: saline 106 % of control

CCCCOc1ccc(OCCCC)cc1
inactive: [13] 114 % of control | [14] 97 % of control | endpoint: mean survival time, dose: 400.0 mg/kg/injection, schedule: Q04DX003 (ip), vehicle: other 101 % of control

c1ccc(P2(c3ccccc3)=NP(c3ccccc3)(c3ccccc3)=NP(c3ccccc3)(c3ccccc3)=N2)cc1
inactive: endpoint: mean survival time, dose: 100.0 mg/kg/injection, schedule: Q04DX003 (ip), vehicle: saline 102 % of control | endpoint: mean survival time, dose: 200.0 mg/kg/injection, schedule: Q04DX003 (ip), vehicle: saline 94 % of control | endpoint: mean survival time, dose: 400.0 mg/kg/injection, schedule: Q04DX003 (ip), vehicle: saline 96 % of control

CCCC(=O)Nc1ccc(S(=O)(=O)Nc2ccc(S(=O)(=O)N3CCOCC3)cc2)cc1
inactive: [10] 103 % of control | [11] 92 % of control | [12] 94 % of control

c1ccc(C2=NC3CCCCC3N=C2c2ccccc2)cc1 (configuration not stated)
inactive: [7] 109 % of control | [8] 113 % of control | [9] 103 % of control

CC(C)C(O)C(C)(C)c1nc2ccccc2[nH]1 (configuration not stated)
inactive: [10] 100 % of control | [11] 94 % of control

CN(C)CCCN=c1c2ccccc2n(C)c2[nH]c(=O)n(C)c(=O)c12
inactive: endpoint: median survival time, dose: 3.75 mg/kg/injection, schedule: Q01DX005 (ip), vehicle: saline 105 % of control | endpoint: median survival time, dose: 7.5 mg/kg/injection, schedule: Q01DX005 (ip), vehicle: saline 109 % of control | endpoint: median survival time, dose: 10.8 mg/kg/injection, schedule: Q01DX005 (ip), vehicle: saline 107 % of control | endpoint: median survival time, dose: 15.0 mg/kg/injection, schedule: Q01DX005 (ip), vehicle: saline 111 % of control and 112 % of control | endpoint: median survival time, dose: 18.0 mg/kg/injection, schedule: Q01DX005 (ip), vehicle: saline 123 % of control | endpoint: median survival time, dose: 30.0 mg/kg/injection, schedule: Q01DX005 (ip), vehicle: saline 116 % of control and 124 % of control | endpoint: median survival time, dose: 50.0 mg/kg/injection, schedule: Q01DX005 (ip), vehicle: saline 119 % of control | endpoint: median survival time, dose: 60.0 mg/kg/injection, schedule: Q01DX005 (ip), vehicle: saline 120 % of control and 101 % of control | endpoint: median survival time, dose: 120.0 mg/kg/injection, schedule: Q01DX005 (ip), vehicle: saline 119 % of control

O=C(Nc1nc(-c2ccccc2)cs1)Nc1cccc(Cl)c1Cl
inactive: [6] 101 % of control | [7] 90 % of control | [8] 97 % of control

COc1cccc2c1C(=O)c1c(OC)cccc1C2=O
inactive: [2] 104 % of control | [3] 101 % of control | endpoint: mean survival time, dose: 100.0 mg/kg/injection, schedule: Q01DX005 (ip), vehicle: other 101 % of control | endpoint: mean survival time, dose: 200.0 mg/kg/injection, schedule: Q01DX005 (ip), vehicle: other 97 % of control | endpoint: mean survival time, dose: 400.0 mg/kg/injection, schedule: Q01DX005 (ip), vehicle: other 93 % of control

CC1(C)COC(C)(C(=O)O)OC1
inactive: [15] 98 % of control | [16] 98 % of control | [17] 96 % of control

CN(C)C(C)(C)CC(C)(C)C
inactive: [15] 96 % of control

O=C(O)CC(Sc1ccccc1)c1ccccc1 (configuration not stated)
inactive: [13] 97 % of control | [14] 101 % of control

CCOC(=O)C(C(=O)c1ccccc1)c1cc(NS(=O)(=O)c2ccccc2)ccc1O (configuration not stated)
inactive: endpoint: mean survival time, dose: 132.0 mg/kg/injection, schedule: Q04DX003 (ip), vehicle: saline with Tween-80 115 % of control | [16] 106 % of control | endpoint: mean survival time, dose: 300.0 mg/kg/injection, schedule: Q04DX003 (ip), vehicle: saline with Tween-80 103 % of control

CCCCCCCCCCCCCCCC(O)S(=O)(=O)O (configuration not stated)
inactive: [6] 93 % of control | [7] 94 % of control

CC(=O)NC(=O)NC(Cc1ccccc1)c1ccccc1 (configuration not stated)
inactive: [7] 98 % of control | [15] 104 % of control | [8] 92 % of control | [16] 96 % of control | [9] 95 % of control | [17] 108 % of control

Nc1nc(Cl)c2nc(Cl)n(C3OC(CO)C(O)C3O)c2n1 (configuration not stated)
inactive: endpoint: mean survival time, dose: 100.0 mg/kg/injection, schedule: Q01DX001 (ip), vehicle: saline 102 % of control | endpoint: mean survival time, dose: 200.0 mg/kg/injection, schedule: Q01DX001 (ip), vehicle: saline 102 % of control | endpoint: mean survival time, dose: 400.0 mg/kg/injection, schedule: Q01DX001 (ip), vehicle: saline 100 % of control

COC1=C(NC(C)=O)C(=O)c2nc(-c3nc(C(=O)O)c(C)c(-c4ccc(OC)c(OC)c4O)c3N)ccc2C1=O
inactive: endpoint: median survival time, dose: 6.25 mg/kg/injection, schedule: Q01DX009 (ip), vehicle: Klucel (hydroxypropylcellulose) (HPC) 106 % of control | endpoint: median survival time, dose: 12.5 mg/kg/injection, schedule: Q01DX009 (ip), vehicle: Klucel (hydroxypropylcellulose) (HPC) 108 % of control | endpoint: median survival time, dose: 25.0 mg/kg/injection, schedule: Q01DX009 (ip), vehicle: Klucel (hydroxypropylcellulose) (HPC) 104 % of control | endpoint: median survival time, dose: 50.0 mg/kg/injection, schedule: Q01DX009 (ip), vehicle: Klucel (hydroxypropylcellulose) (HPC) 107 % of control | endpoint: median survival time, dose: 100.0 mg/kg/injection, schedule: Q01DX009 (ip), vehicle: Klucel (hydroxypropylcellulose) (HPC) 109 % of control | endpoint: median survival time, dose: 200.0 mg/kg/injection, schedule: Q01DX009 (ip), vehicle: Klucel (hydroxypropylcellulose) (HPC) 109 % of control

O=c1[nH]cc(Br)c2sccc12
inactive: [6] 102 % of control | [7] 104 % of control

N#CC(=C1CCCCC1)c1ccccc1
inactive: endpoint: mean survival time, dose: 75.0 mg/kg/injection, schedule: Q01DX001 (ip), vehicle: saline 98 % of control | endpoint: mean survival time, dose: 150.0 mg/kg/injection, schedule: Q01DX001 (ip), vehicle: saline 104 % of control | endpoint: mean survival time, dose: 300.0 mg/kg/injection, schedule: Q01DX001 (ip), vehicle: saline 96 % of control

C/C=C(\Br)C(=O)O
inactive: endpoint: mean survival time, dose: 25.0 mg/kg/injection, schedule: Q04DX002 (ip), vehicle: saline with Tween-80 101 % of control | endpoint: mean survival time, dose: 50.0 mg/kg/injection, schedule: Q04DX002 (ip), vehicle: saline with Tween-80 101 % of control | endpoint: mean survival time, dose: 100.0 mg/kg/injection, schedule: Q04DX002 (ip), vehicle: saline with Tween-80 104 % of control

N\C([S-])=N/N=C\C(=N/N=C(\N)[S-])C(O)C(O)C(O)CO.[Fe+2] (configuration not stated)
inactive: endpoint: mean survival time, dose: 100.0 mg/kg/injection, schedule: Q01DX009 (ip), vehicle: saline sonified 91 % of control | endpoint: mean survival time, dose: 200.0 mg/kg/injection, schedule: Q01DX009 (ip), vehicle: saline sonified 92 % of control

O=C1c2ccccc2C(c2ccc(Br)cc2)C1Br (configuration not stated)
inactive: [15] 97 % of control | [16] 90 % of control | [17] 100 % of control
